Experimental data reported in the supplement of paper PMC12669032.

Columns and labels:
Experiment in all cases: growth AUC relative to DMSO control (fraction); higher = more growth (less inhibition)
Conditions in all cases: 24 h
Clostridium difficile = system: Clostridium difficile
Procedure: (§1)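 Validation screen: 11 independently purchased pesticides tested on 8 gut bacterial strains at 2.5–320 µM in mGAM, anaerobic, 37 °C, 24 h. Growth AUC normalised to DMSO controls, mean of 3 independent experiments.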

Bacteroides uniformis = system: Bacteroides uniformis
Procedure: as §1

Streptococcus salivarius = system: Streptococcus salivarius
Procedure: as §1

Escherichia coli IAI1 = system: Escherichia coli IAI1
Procedure: as §1

Eubacterium rectale = system: Eubacterium rectale
Procedure: as §1

[1] = system: Parabacteroides distasonis
Procedure: as §1

Roseburia intestinalis = system: Roseburia intestinalis
Procedure: as §1

Lactobacillus gasseri = system: Lactobacillus gasseri
Procedure: as §1

CCCCOC(=O)[C@@H](C)Oc1ccc(Oc2ccc(C#N)cc2F)cc1 [CYHALOFOP-BUTYL]
growth AUC
Conditions | Bacteroides uniformis | Clostridium difficile | Escherichia coli IAI1 | Eubacterium rectale | Lactobacillus gasseri | Roseburia intestinalis | Streptococcus salivarius | [1]
2.5 µM | 1.01 | 1.02 | 1.01 | 1.11 | 1.05 | 1.01 | 1.07 | 1.04
5 µM | 0.969 | 0.984 | 0.98 | 1.04 | 0.986 | 0.964 | 1.02 | 0.93
10 µM | 0.994 | 0.98 | 0.975 | 1.05 | 0.986 | 1.02 | 0.957 | 0.859
20 µM | 0.937 | 1.03 | 0.972 | 0.967 | 0.981 | 0.891 | 0.972 | 0.717
40 µM | 0.971 | 1.02 | 0.996 | 1.02 | 0.956 | 0.981 | 0.981 | 0.643
80 µM | 0.99 | 0.992 | 0.979 | 1.13 | 1.01 | 0.976 | 0.999 | 0.684
160 µM | 0.968 | 1.01 | 0.992 | 1.18 | 0.969 | 0.998 | 1.01 | 0.588
320 µM | 0.925 | 0.977 | 1 | 1.28 | 0.975 | 0.918 | 1.1 | 0.437

CCCC1COC(Cn2cncn2)(c2ccc(Cl)cc2Cl)O1 (stereo not given) [PROPICONAZOLE]
growth AUC
Conditions | Bacteroides uniformis | Clostridium difficile | Escherichia coli IAI1 | Eubacterium rectale | Lactobacillus gasseri | Roseburia intestinalis | Streptococcus salivarius | [1]
2.5 µM | 1.03 | 0.982 | 1 | 1.19 | 1.03 | 0.971 | 1.1 | 1.12
5 µM | 0.99 | 1.01 | 0.993 | 0.951 | 0.968 | 0.925 | 1.04 | 1
10 µM | 1.02 | 0.967 | 0.971 | 0.703 | 1.02 | 1.01 | 1.06 | 0.988
20 µM | 0.97 | 1.03 | 0.981 | 0.475 | 0.96 | 0.894 | 0.994 | 0.874
40 µM | 0.951 | 0.981 | 0.999 | 0.344 | 0.972 | 0.947 | 1.04 | 0.488
80 µM | 0.915 | 0.979 | 0.975 | 0.0163 | 0.94 | 0.716 | 1.06 | 0.284
160 µM | 0.831 | 0.885 | 0.996 | 0.0214 | 0.851 | 0.202 | 1.03 | 0.0246
320 µM | 0.618 | 0.385 | 0.994 | 0.0204 | 0.832 | 0.0162 | 0.932 | 0.0187

O=[N+]([O-])c1cc(C(F)(F)F)c(Cl)c([N+](=O)[O-])c1Nc1ncc(C(F)(F)F)cc1Cl [FLUAZINAM]
growth AUC
Conditions | Bacteroides uniformis | Clostridium difficile | Escherichia coli IAI1 | Eubacterium rectale | Lactobacillus gasseri | Roseburia intestinalis | Streptococcus salivarius | [1]
2.5 µM | 1.04 | 0.99 | 1.03 | 1.04 | 1.01 | 1.01 | 1.04 | 0.966
5 µM | 1.02 | 0.995 | 1.01 | 0.887 | 0.968 | 1.08 | 1 | 0.859
10 µM | 0.996 | 0.969 | 1.03 | 0.692 | 0.921 | 0.959 | 0.984 | 0.411
20 µM | 0.807 | 0.909 | 0.912 | 0.227 | 0.844 | 0.879 | 0.815 | 0.0128
40 µM | 0.593 | 0.0127 | 0.934 | 0.0306 | 0.847 | 0.584 | 0.992 | 0.0301

CCC(C)[C@H]1O[C@]2(C=C[C@@H]1C)C[C@@H]1C[C@@H](C/C=C(\C)[C@@H](O[C@H]3C[C@H](OC)[C@@H](O[C@H]4C[C@H](OC)[C@@H](O)[C@H](C)O4)[C@H](C)O3)[C@@H](C)/C=C/C=C3\CO[C@@H]4[C@H](O)C(C)=C[C@@H](C(=O)O1)[C@]34O)O2.CO[C@H]1C[C@H](O[C@H]2[C@H](C)O[C@@H](O[C@@H]3/C(C)=C/C[C@@H]4C[C@@H](C[C@]5(C=C[C@H](C)[C@@H](C(C)C)O5)O4)OC(=O)[C@@H]4C=C(C)[C@@H](O)[C@H]5OC/C(=C\C=C\[C@@H]3C)[C@]54O)C[C@@H]2OC)O[C@@H](C)[C@@H]1O (stereo not given in full) [ABAMECTIN]
growth AUC
Conditions | Bacteroides uniformis | Clostridium difficile | Escherichia coli IAI1 | Eubacterium rectale | Lactobacillus gasseri | Roseburia intestinalis | Streptococcus salivarius | [1]
2.5 µM | 0.975 | 1.02 | 1.01 | 1.29 | 1.04 | 0.865 | 1.04 | 0.985
5 µM | 0.996 | 0.979 | 0.978 | 1.17 | 1.07 | 0.871 | 0.973 | 0.918
10 µM | 0.968 | 0.968 | 1.01 | 1.05 | 1.03 | 0.564 | 0.983 | 0.409
20 µM | 0.996 | 0.986 | 0.957 | 0.881 | 0.983 | 0.21 | 0.876 | 0.057
40 µM | 0.974 | 0.966 | 1.01 | 0.774 | 0.952 | 0.121 | 0.894 | 0.0234
80 µM | 0.971 | 0.887 | 1 | 0.892 | 1.02 | 0.102 | 0.887 | 0.0192
160 µM | 0.99 | 0.885 | 0.974 | 0.999 | 0.889 | 0.107 | 1.01 | 0.0484

Cc1cc(C(C#N)c2ccc(Cl)cc2)c(Cl)cc1NC(=O)c1cc(I)cc(I)c1O (stereo not given) [CLOSANTEL]
growth AUC
Conditions | Bacteroides uniformis | Clostridium difficile | Escherichia coli IAI1 | Eubacterium rectale | Lactobacillus gasseri | Roseburia intestinalis | Streptococcus salivarius | [1]
2.5 µM | 1 | 0.0348 | 1.07 | 0.453 | 0.809 | 0.246 | 1.05 | 0.245
5 µM | 0.973 | 0.0106 | 1.04 | 0.242 | 0.827 | 0.149 | 1.04 | 0.00935
10 µM | 0.616 | 0.0157 | 1.03 | 0.0185 | 0.866 | 0.0586 | 1.09 | 0.00581
20 µM | 0.609 | 0.0183 | 0.929 | 0.0129 | 0.848 | 0.0162 | 1.06 | 0.00682
40 µM | 0.573 | 0.00635 | 0.904 | 0.00913 | 0.815 | 0.0268 | 1.04 | 0.0119
80 µM | 0.575 | 0.0171 | 0.886 | 0.0119 | 0.836 | 0.0158 | 1.13 | 0.0133
160 µM | 0.575 | 0.072 | 0.861 | 0.0223 | 0.81 | 0.0258 | 1.06 | 0.0101
